Values of other authors in patent US6667408B2, “Process for preparing cyclic polyethers” (Japan Science and Technology Corporation, priority 2000, dated 2003).

Tested on: mice
Conditions: i.p.

For `C=CC/C=C\C=C/[C@H]1O[C@H]2C[C@H]3O[C@H]4CC[C@H]5O[C@H]6C[C@@]7(C)O[C@@]8(C)[C@@H](O)C[C@H](CCCO)O[C@@H]8C[C@@H]7O[C@@H]6C[C@@H]5O[C@]4(C)C[C@]3(C)O[C@@H]2C=C[C@]1(C)O` [gambierol], the LD50 is listed as 0.05 mg/kg.
